Results on four compounds are retold here after US20220380334A1, “(-) - CIS TETRAHYDROCANNABINOL ((-) - CIS-THC) FOR USE AS A MEDICAMENT” (GW Research Limited, priority 2019, published 2022).

For test [1], the system named is withdrawal threshold on hot plate at 52° C. The experiment in a line: Mouse hotplate test of anti-nociceptive potential. It counts as in vivo. The following applies: for Withdrawal threshold (sec) Mean +/− SEM: hot plate 52° C. Here is the method: Mice underwent a minimum habituation period of 7 days prior to study commencement. Naïve mice were acclimatised to the procedure room in their home cages, with food and water available ad libitum.
Animals were treated with either treatment vehicle, (−)-cis-THC at 1, 15, 50, 100, 125 and 150 mg/kg at 10 ml/kg i.p. or Morphine 10 mg/kg or Morphine vehicle (Saline) at 10 ml/kg i.p.
Animals were placed onto a hot plate set at 52° C. and time to withdrawal threshold (first response of lifting, licking front or hind paws or trying to escape) was taken at 1-hour post treatment, or at 0.5 hour after the positive control.
Animals were culled by a schedule 1 method, immediately after the measurement.
Data were analysed by comparing withdrawal thresholds back to Vehicle treated group

The subject of test [2] is tonic hind limb convulsions. The experiment in a line: Mouse supramaximal electroshock seizure (MES) model of generalized seizures. In kind it is in vivo. The procedure:
Mice were administered MES (30 mA, rectangular current: 0.6 ms pulse width, 0.2 s duration, 50 Hz) via corneal electrodes connected to a constant current shock generator (Ugo Basile: type 7801) to reliably produce tonic hind limb convulsions. The number of tonic convulsions was recorded.
Sixteen mice were studied per group. The test was performed blind.
The test substance, (−)-cis-THC, was evaluated at 4 doses (10, 50, 100 and 150 mg/kg), administered i.p. 60 minutes before MES, and compared with a vehicle control group (administered under the same experimental conditions).
Valproate (positive control) was administered at 250 mg/kg i.p. 30 minutes before MES, was used as a reference substance and was compared with a vehicle group (administered i.p. 60 minutes before MES).
Data was analysed by comparing treated groups with the appropriate vehicle control using 2-tailed Fisher's Exact Probability tests (p<0.05 considered significant).
On the technique in general: The maximal electroshock test induces tonic seizures with an electrical stimulus.

The conditions of test [3]: depending on the assay; cited from earlier work.

“Also recorded” adds a separate entry of the source. Marks after values point to notes of the source that are not given here.

Consider `CN1CC[C@]23c4c5ccc(O)c4O[C@H]2[C@@H](O)C=C[C@H]3[C@H]1C5` [Morphine, reference compound], for which the “Withdrawal threshold (sec) Mean +/− SEM” value is on record as 23.17 +/− 1.54 *** sec in test [1] (10 mg/kg I.P., 0.5 hour after treatment) and “significant increase” in test [1] (10 mg/kg I.P., 0.5 hour after treatment, listed as morphine).

For the compound `CCCC(CCC)C(=O)O` [Valproate, reference compound], in test [2] (250 mg/kg I.P., pre-treatment time 30 mins), the “% change from vehicle in number of tonic clonic seizures after MES” value (from here on “% change from vehicle in number”) amounted to 93.8%.

On to `CCCCCc1cc(O)c2c(c1)OC(C)(C)[C@@H]1CCC(C)=C[C@@H]21` [(−)-trans-THC, (−)-trans-delta-9-tetrahydrocannabinol], for which the “potency relative to the (+)-trans-THC isomer” value in test [3] is given as 6-100 times.

For the compound `CCCCCc1cc(O)c2c(c1)OC(C)(C)[C@H]1CCC(C)=C[C@@H]21` (relative stereo) [(−)-cis-THC, (−)-cis-delta-9-tetrahydrocannabinol], the “% change from vehicle in number” value was “No effect” in test [2] (10 mg/kg I.P., pre-treatment time 60 mins); 0.0% in test [2] (10 mg/kg I.P., pre-treatment time 60 mins, listed as (-)-cis-THC); 25% in test [2] (50 mg/kg I.P., pre-treatment time 60 mins); 25.0% in test [2] (50 mg/kg I.P., pre-treatment time 60 mins, listed as (-)-cis-THC); 6.3% in test [2] (100 mg/kg I.P., pre-treatment time 60 mins); 25% in test [2] (150 mg/kg I.P., pre-treatment time 60 mins). Further, the “% change from vehicle in number” value in test [2] (150 mg/kg I.P., pre-treatment time 60 mins, listed as (-)-cis-THC) worked out at 25.0%. Also, the “anti-convulsant effect in the MES model (overall conclusion)” value in test [2] (10, 50, 100 and 150 mg/kg i.p.) was “did not produce a significant anti-convulsant effect”. Moreover, the “Withdrawal threshold (sec) Mean +/− SEM” value was 10.99 ± 0.92 s in test [1] (1 mg/kg I.P., 1-hour post treatment); 10.22 ± 0.94 s in test [1] (15 mg/kg I.P., 1-hour post treatment); 12.68 ± 1.11 s in test [1] (50 mg/kg I.P., 1-hour post treatment); 14.23 ± 1.37 s in test [1] (100 mg/kg I.P., 1-hour post treatment); 15.28 ± 1.19 s in test [1] (125 mg/kg I.P., 1-hour post treatment). Further, the “anti-nociceptive effect in the hotplate test (overall, in words)” value in test [1] (1 to 150 mg/kg i.p.) is given as “dose-related increase in withdrawal threshold; also recorded: significant anti-nociceptive effect”.
